Patent US20120016019A1, “PHARMACEUTICAL COMPOSITION FOR TREATING OR PREVENTING CANCER” (priority 2010, published 2012)
“And” between values parts separate entries of the source, which are not always exact repeats. Identical values can stand only once. Like-named read-outs stand apart in the source and are kept apart here.

Assays:
SKBR3 = experiment: Cell counts, SKBR3; type: cell-based; conditions: for cell counts: single wells
Experimental: (§3) Cancer cell lines HCC 1419, MCF-7, MDA-MB-468, SKBR3, PC3, HT1299, Saos-2, C-6, AsPc, MDA-MB-231, RKO, HeLa and TT, and normal cell lines HME 50 HT, BJ and CCD-1074sk were tested for changes in metabolism (XTT assay) and cell death (cell counts).
(§4) Cells were plated into 48-well Corning CellBind™ plates at densities of 20,000 cells for normal cells and 10,000˜20,000 cells for cancer cells. 24 to 48 h after plating, cells were treated with the composition according to the invention at concentrations of 4.5e-2M. The first time point treated with the composition of the invention is 0 h. At 3 days after the first treatment with the composition of the invention, medium was changed and the composition of the invention at the same concentrations were added to the cultured cells.
(§5) Cells were harvested using Trypsin-EDTA at the designated time points. […] Two 48-well plates were used per cell line, and they were measured at 0 h, 12 h, 24 h, 48 h, 4 d and 7 d, respectively.
(§6) In the 1st plate, cells were treated with the composition according to the invention and medium was changed at 0 h and 3 d. […] As a result, LC-50 curves were generated in the 1st week.

Saos-2 = experiment: Cell counts, Saos-2; type: cell-based
Experimental: as §3, §4, §5, §6

HME 50 HT = type: cell-based; conditions: for cell counts: single count
Experimental: (§1) As a result, LC-50 curves were generated in the 1st week.
(§2) In the 2nd plate, 7 d of the 1st week (LC-50) is the same as 0 h of the 2nd week (recovery).
At 0 h of the 2nd week, medium was exchanged with untreated medium for the remainder of the experiment. The untreated controls were not measured in the 2nd week (recovery) due to overconfluence by the end of the 1st week. As a result, Recovery curves were generated in the 2nd week.
Human Mammary Epithelial (HME) cells were derived from adjacent normal tissue.

HCC 1419 = experiment: Cell counts, HCC 1419; type: cell-based; conditions: for cell counts: single wells
Experimental: Cells were plated into 48-well Corning CellBind™ plates at densities of 20,000 cells for normal cells and 10,000˜20,000 cells for cancer cells. […] The first time point treated with the composition of the invention is 0 h.
as §5, §6

TT = experiment: Cell counts, TT; type: cell-based
Experimental: as §1, §2
At 0 h of the 2nd week, medium was exchanged with untreated medium for the remainder of the experiment. […] As a result, Recovery curves were generated in the 2nd week.

PC-3 = experiment: Cell counts, PC-3; type: cell-based, human; conditions: for cell counts: single wells
Experimental: as §4, §5
In the 1st plate, cells were treated with the composition according to the invention and medium was changed at 0 h and 3 d.

[1] = HME 50 HT, 1st week (LC50), 0 h
[2] = HME 50 HT, 1st week (LC50), 12 h
[3] = HME 50 HT, 1st week (LC50), 24 h
[4] = HME 50 HT, 1st week (LC50), 48 h
[5] = HME 50 HT, 1st week (LC50), 4 d
[6] = HME 50 HT, 1st week (LC50), 7 d

For `CC(=O)O[C@H]1C(=O)[C@@]2(C)[C@H]([C@H](OC(=O)c3ccccc3)[C@]3(O)C[C@H](OC(=O)[C@H](O)[C@@H](NC(=O)c4ccccc4)c4ccccc4)C(C)=C1C3(C)C)[C@]1(OC(C)=O)CO[C@@H]1C[C@@H]2O` [Taxol], the “cell counts, Mean value” (SKBR3; 1st week (LC50), 0 h) was 2667, the cell counts (SKBR3; 1st week (LC50), 0 h) was 2000 and 4000 and the “cell counts, Mean value” (SKBR3; 1st week (LC50), 24 h) was 9333. The cell counts (SKBR3; 1st week (LC50), 24 h) was 6000 and 11000, the “cell counts, Mean value” (SKBR3; 1st week (LC50), 48 h) was 4000 and the cell counts (SKBR3; 1st week (LC50), 48 h) was 4000. The “cell counts, Mean value” (SKBR3; 1st week (LC50), 4 d) was 1000, the cell counts (SKBR3; 1st week (LC50), 4 d) was 1000 and the “cell counts, Mean value” (SKBR3; 1st week (LC50), 7 d) was 3000. For the same compound, the “cell counts, Mean value” (SKBR3; 2nd week (recovery), 0 h) was 70667, the cell counts (SKBR3; 2nd week (recovery), 0 h) was 60000 and 80000 and 72000 and the “cell counts, Mean value” (SKBR3; 2nd week (recovery), 24 h) was 49333. For the same compound, the cell counts (SKBR3; 2nd week (recovery), 24 h) was 32000 and 60000 and 56000, the “cell counts, Mean value” (SKBR3; 2nd week (recovery), 48 h) was 44000 and the cell counts (SKBR3; 2nd week (recovery), 48 h) was 56000 and 36000 and 40000. For the same compound, the “cell counts, Mean value” (SKBR3; 2nd week (recovery), 4 d) was 17250, the cell counts (SKBR3; 2nd week (recovery), 4 d) was 15000 and 12500 and 22000 and the “cell counts, Mean value” (SKBR3; 2nd week (recovery), 7 d) was 10000. For the same compound, the cell counts (SKBR3; 2nd week (recovery), 7 d) was 10000 and 12000 and 8000, the “process of cell death (microscopy)” value (Saos-2) was “cell membranes were ruptured by toxicity of Taxol, and then nuclei of cells changed into black” and the cell counts (Saos-2; 1st week (LC50), 0 h) was 2143 and 2221 and 2135. For the same compound, the “cell counts, Mean value” (Saos-2; 1st week (LC50), 0 h) was 2166, the cell counts (Saos-2; 1st week (LC50), 12 h) was 1756 and 1790 and 1705 and the “cell counts, Mean value” (Saos-2; 1st week (LC50), 12 h) was 1750. The cell counts (Saos-2; 1st week (LC50), 24 h) was 1529 and 1376 and 1452, the “cell counts, Mean value” (Saos-2; 1st week (LC50), 24 h) was 1452 and the cell counts (Saos-2; 1st week (LC50), 48 h) was 857 and 822 and 776. The “cell counts, Mean value” (Saos-2; 1st week (LC50), 48 h) was 818, the “cell counts, Mean value” (Saos-2; 1st week (LC50), 4 d) was 420 and the “cell counts, Mean value” (Saos-2; 2nd week (recovery), 0 h) was 609. For the same compound, the “cell counts, Mean value” (Saos-2; 2nd week (recovery), 24 h) was 183, the cell counts (Saos-2; 2nd week (recovery), 48 h) was 312 and 249 and 165 and the “cell counts, Mean value” (Saos-2; 2nd week (recovery), 48 h) was 242. For the same compound, the cell counts (Saos-2; 2nd week (recovery), 4 d) was 416 and 589 and 602, the “cell counts, Mean value” (Saos-2; 2nd week (recovery), 4 d) was 536 and the “cell counts, Mean value” (Saos-2; 2nd week (recovery), 7 d) was 635. For the same compound, the “number of normal cells” value (HME 50 HT) was “the number of cells did not increase, and was merely maintained for two weeks”, the “cell counts, Mean value” (HME 50 HT; [1]) was 14667 and the cell counts (HME 50 HT; [1]) was 12000 and 11000 and 21000. For the same compound, the “cell counts, Mean value” (HME 50 HT; [2]) was 16667, the cell counts (HME 50 HT; [2]) was 14000 and 23000 and 13000 and the “cell counts, Mean value” (HME 50 HT; [3]) was 11333. The cell counts (HME 50 HT; [3]) was 14000 and 11000 and 9000, the “cell counts, Mean value” (HME 50 HT; [4]) was 15667 and the cell counts (HME 50 HT; [4]) was 18000 and 11000. The “cell counts, Mean value” (HME 50 HT; [5]) was 9000, the cell counts (HME 50 HT; [5]) was 9000 and the “cell counts, Mean value” (HME 50 HT; [6]) was 16667. The cell counts (HME 50 HT; [6]) was 17000 and 19000 and 14000, the “cell counts, Mean value” (HME 50 HT; HME, 2nd week (recovery), 0 h) was 16333 and the cell counts (HME 50 HT; HME, 2nd week (recovery), 0 h) was 19000 and 17000 and 13000. The “cell counts, Mean value” (HME 50 HT; HME, 2nd week (recovery), 12 h) was 13667, the cell counts (HME 50 HT; HME, 2nd week (recovery), 12 h) was 13000 and 15000 and the “cell counts, Mean value” (HME 50 HT; HME, 2nd week (recovery), 24 h) was 12667. The cell counts (HME 50 HT; HME, 2nd week (recovery), 24 h) was 12000 and 15000 and 11000, the “cell counts, Mean value” (HME 50 HT; HME, 2nd week (recovery), 48 h) was 17000 and the cell counts (HME 50 HT; HME, 2nd week (recovery), 48 h) was 18000 and 16000 and 17000. The “cell counts, Mean value” (HME 50 HT; HME, 2nd week (recovery), 4 d) was 16333, the cell counts (HME 50 HT; HME, 2nd week (recovery), 4 d) was 18000 and 19000 and 12000 and the “cell counts, Mean value” (HME 50 HT; HME, 2nd week (recovery), 7 d) was 16000. For the same compound, the cell counts (HME 50 HT; HME, 2nd week (recovery), 7 d) was 14000 and 19000 and 15000, the “growth pattern of the cells in the well (microscopy)” value (HCC 1419) was “growing in a diffuse, spreading pattern over the whole well” and the “number of cancer cells (course)” value (HCC 1419; 1st week (LC50) and 2nd week (recovery)) was “did not decreased any more and was maintained”. The “cell counts, Mean value” (HCC 1419; 1st week (LC50), 0 h) was 3156, the cell counts (HCC 1419; 1st week (LC50), 0 h) was 3055 and 2626 and 3788 and the “cell counts, Mean value” (HCC 1419; 1st week (LC50), 12 h) was 3479. The cell counts (HCC 1419; 1st week (LC50), 12 h) was 3434 and 3451 and 3553, the “cell counts, Mean value” (HCC 1419; 1st week (LC50), 24 h) was 3036 and the cell counts (HCC 1419; 1st week (LC50), 24 h) was 2957 and 3488 and 2664. The “cell counts, Mean value” (HCC 1419; 1st week (LC50), 48 h) was 2978, the cell counts (HCC 1419; 1st week (LC50), 48 h) was 2232 and 3502 and 3199 and the “cell counts, Mean value” (HCC 1419; 1st week (LC50), 4 d) was 2544. For the same compound, the cell counts (HCC 1419; 1st week (LC50), 4 d) was 1716 and 2940 and 2975, the “cell counts, Mean value” (HCC 1419; 1st week (LC50), 7 d) was 1741 and the cell counts (HCC 1419; 1st week (LC50), 7 d) was 1718 and 1710 and 1794. For the same compound, the “cell counts, Mean value” (HCC 1419; 2nd week (recovery), 0 h) was 8878, the cell counts (HCC 1419; 2nd week (recovery), 0 h) was 8472 and 8522 and 9639 and the cell counts (HCC 1419; 2nd week (recovery), 24 h) was 7966. The cell counts (HCC 1419; 2nd week (recovery), 48 h) was 4901, the cell counts (HCC 1419; 2nd week (recovery), 7 d) was 7316 and 3792 and the cell counts (TT; 1st week (LC50), 0 h) was 133000 and 117500 and 123000. The “cell counts, Mean value” (TT; 1st week (LC50), 0 h) was 124500, the “cell counts, Mean value” (TT; 1st week (LC50), 24 h) was 106333 and the cell counts (TT; 1st week (LC50), 48 h) was 175000 and 109000 and 114000. For the same compound, the “cell counts, Mean value” (TT; 1st week (LC50), 48 h) was 132667, the cell counts (TT; 1st week (LC50), 4 d) was 84000 and 72500 and 56000 and the “cell counts, Mean value” (TT; 1st week (LC50), 4 d) was 70833. The cell counts (TT; 1st week (LC50), 7 d) was 35000 and 26000, the “cell counts, Mean value” (TT; 1st week (LC50), 7 d) was 32000 and the “cell counts, Mean value” (TT; 2nd week (recovery), 0 h, mean value) was 44000. The cell counts (TT; 2nd week (recovery), 0 h, single count) was 44000 and 53000 and 35000, the “cell counts, Mean value” (TT; 2nd week (recovery), 24 h, mean value) was 17667 and the “cell counts, Mean value” (TT; 2nd week (recovery), 48 h, mean value) was 30667. For the same compound, the cell counts (TT; 2nd week (recovery), 48 h, single count) was 35000 and 31000 and 26000, the “cell counts, Mean value” (TT; 2nd week (recovery), 4 d, mean value) was 16667 and the cell counts (TT; 2nd week (recovery), 4 d, single count) was 15000 and 12500. For the same compound, the “cell counts, Mean value” (TT; 2nd week (recovery), 7 d, mean value) was 11500, the “killing of PC-3 cells” value (PC-3) was “relatively resistant to Taxol” and the “cell counts, Mean value” (PC-3; 1st week (LC50), 0 h) was 6580. The “cell counts, Mean value” (PC-3; 1st week (LC50), 12 h) was 5462, the cell counts (PC-3; 1st week (LC50), 12 h) was 4805 and 5805 and 5775 and the “cell counts, Mean value” (PC-3; 1st week (LC50), 24 h) was 5205. For the same compound, the cell counts (PC-3; 1st week (LC50), 24 h) was 4360 and 4820 and 6435, the “cell counts, Mean value” (PC-3; 1st week (LC50), 48 h) was 2013 and the cell counts (PC-3; 1st week (LC50), 48 h) was 1821 and 1969. For the same compound, the “cell counts, Mean value” (PC-3; 1st week (LC50), 4 d) was 1029, the cell counts (PC-3; 1st week (LC50), 4 d) was 861 and 975 and 1250 and the “cell counts, Mean value” (PC-3; 2nd week (recovery), 0 h) was 514. The cell counts (PC-3; 2nd week (recovery), 0 h) was 392 and 389 and 760, the “cell counts, Mean value” (PC-3; 2nd week (recovery), 24 h) was 305 and the cell counts (PC-3; 2nd week (recovery), 24 h) was 269 and 328 and 318. For the same compound, the “cell counts, Mean value” (PC-3; 2nd week (recovery), 48 h) was 350, the cell counts (PC-3; 2nd week (recovery), 48 h) was 369 and 303 and 378 and the “cell counts, Mean value” (PC-3; 2nd week (recovery), 4 d) was 1324. The cell counts (PC-3; 2nd week (recovery), 4 d) was 1574 and 1376 and 1023 and the “cell counts, Mean value” (PC-3; 2nd week (recovery), 7 d) was 483.
